“Also recorded” adds a separate entry of the source.
Experiments:
[1] = system: MIN6 cells; test: Immunoblotting of MIN6 whole cell lysates; format: cell-based, mouse
Experimental: FIGS. 2[…]-1) activates insulin expression and improves β cell function in MIN6 cells. (FIG. 2A) Dose-response relationship of MIN6 cells treated with 5-80 μM Isx for 24 h or DMSO (0.08%-similar to the highest concentration of Isx). Whole cell lysates (40 μg) were subjected to immunoblotting using antibodies against BETA2NeuroD1, MafA, PDX-1, pERK1/2 (pT183/[…]), acetylated histones […] and ACH3K9 and total histone H3. (FIG. 2B) Quantitative RT-PCR of murine insulin1 and insulin2 gene expression in MIN6 cells treated with Isx for 24 h as in FIG. 2A. […] (FIG. 2D) Insulin content measured by ELISA in MIN6 cells treated with Isx for 24 or 48 h. (FIG. 2E) GSIS induced by glucose, amino acids (AA) and Exendin-4 (Ex-4) singly or in combination in MIN6 cells pretreated with Isx for 48 h. FIGS. 4[…]-1) is a HAT activator. (FIG. 4A) Immunoblots of acetylated histones in MIN6 cells pretreated with the indicated inhibitors for 16 h and then treated with vehicle or Isx. (FIGS. 4B-C) HDAC (FIG. 4B) and HAT (FIG. 4C) activities in 50 μg of nuclear extract protein from MIN6 cells treated with Isx or DMSO for 24 h. Trichostatin A (TSA; 2 μM) was added at as a positive control. HeLa nuclear extract also was included as a positive control. […] Statistical analysis was performed using Student's t test as in FIGS. 1A-E. *P<0.05; **P<0.01. (FIG. 4G) Simplified view of the actions of Isx. FIG. 6. Time course of […]-1) treatment in MIN6 cells. Immunoblotting of whole cell extracts from MIN6 cells grown for 24 h in complete DMEM containing […] and treated with 20 μM Isx for from 15 min to 24 h. The control (0 min) was treated with DMSO for 24 h. MIN6 cells were cultured in DMEM (Gibco), containing 25 mM glucose, 10% fetal bovine serum, 10 mM Hepes pH 7.4, 10.2 mM L-glutamine, […] sodium pyruvate, 2.5 mM β-mercaptoethanol, 100 U/ml penicillin and 100 μg/ml streptomycin at 37° C. in 10% CO2. Human islets were obtained from the ICR Basic Science Islet Distribution and from the University of Alabama, Birmingham Islet Resource Facility and were cultured in RPMI 1640 with 11 mM glucose for up to 1 year. The medium was changed twice weekly and the islets were subcultured when they reached 90% confluence. For Isx treatments, cells were incubated in medium containing either Isx or the equivalent volume of DMSO vehicle (0.04%). To measure GSIS, cells were placed in Krebs-Ringer bicarbonate/Hepes containing 0.1% bovine serum albumin and 2 mM glucose for 2 h, and stimulated for 15 min with 20 mM glucose, a 1× amino-acid mixture (concentrations as in DMEM), or 50 nM Exendin-4.

[2] = system: BETA2; test: Acetylation of BETA2 (anti-myc immunoprecipitates, anti-acetyl lysine immunoblot); format: cell-based; settings: cells overexpressing myc-BETA2 (FIG. 3C)
Experimental: FIGS. 3A-E. Isx (LSH-1) activates transcription factors that regulate insulin gene expression and insulin production. (FIG. 3A) Insulin promoter reporter activity in HEK293 cells transfected with BETA2, MafA, PDX-1, or (FIG. 3B) WT MafA or mutant MafA, treated with Isx or vehicle for 24 h. (FIG. 3C) Immunoblotting of anti-myc immunoprecipates using anti-acetyl lysine (Ac-K) and anti-BETA2 from cells overexpressing myc-BETA2. (FIG. 3D) Chromatin immunoprecipitation (ChIP) analysis of MafA and BETA2 (FIG. 3E) association with the insulin promoter in MIN6 cells in response to a 10-min glucose stimulation.

[3] = system: HDAC; test: HDAC activity in nuclear extracts of treated MIN6 cells; format: cell-based, mouse; settings: 24 h treatment, TSA 2 μM positive control (FIG. 4B)
Experimental: (§1) The histone acetyl transferase and deacetylase activities were measured in 50 μg of nuclear protein using the HAT and HDAC activity colorimetric assay kits from Biovision Biotechnology according to manufacturer's recommendations.

[4] = system: HAT; test: HAT activity in nuclear extracts of treated MIN6 cells; format: cell-based, mouse
Experimental: as §1

[5] = biological target: T1, p300 (Homo sapiens, UniProt Q09472); test: HAT activity of HATs expressed in 293 cells; format: cell-based; settings: combination of ERK2 expression and Isx, 24 h (FIG. 8)
T1 construct: expressed in transfected cells; host or cells: HEK293
T1 sequence (Q09472 whole entry, species assumed): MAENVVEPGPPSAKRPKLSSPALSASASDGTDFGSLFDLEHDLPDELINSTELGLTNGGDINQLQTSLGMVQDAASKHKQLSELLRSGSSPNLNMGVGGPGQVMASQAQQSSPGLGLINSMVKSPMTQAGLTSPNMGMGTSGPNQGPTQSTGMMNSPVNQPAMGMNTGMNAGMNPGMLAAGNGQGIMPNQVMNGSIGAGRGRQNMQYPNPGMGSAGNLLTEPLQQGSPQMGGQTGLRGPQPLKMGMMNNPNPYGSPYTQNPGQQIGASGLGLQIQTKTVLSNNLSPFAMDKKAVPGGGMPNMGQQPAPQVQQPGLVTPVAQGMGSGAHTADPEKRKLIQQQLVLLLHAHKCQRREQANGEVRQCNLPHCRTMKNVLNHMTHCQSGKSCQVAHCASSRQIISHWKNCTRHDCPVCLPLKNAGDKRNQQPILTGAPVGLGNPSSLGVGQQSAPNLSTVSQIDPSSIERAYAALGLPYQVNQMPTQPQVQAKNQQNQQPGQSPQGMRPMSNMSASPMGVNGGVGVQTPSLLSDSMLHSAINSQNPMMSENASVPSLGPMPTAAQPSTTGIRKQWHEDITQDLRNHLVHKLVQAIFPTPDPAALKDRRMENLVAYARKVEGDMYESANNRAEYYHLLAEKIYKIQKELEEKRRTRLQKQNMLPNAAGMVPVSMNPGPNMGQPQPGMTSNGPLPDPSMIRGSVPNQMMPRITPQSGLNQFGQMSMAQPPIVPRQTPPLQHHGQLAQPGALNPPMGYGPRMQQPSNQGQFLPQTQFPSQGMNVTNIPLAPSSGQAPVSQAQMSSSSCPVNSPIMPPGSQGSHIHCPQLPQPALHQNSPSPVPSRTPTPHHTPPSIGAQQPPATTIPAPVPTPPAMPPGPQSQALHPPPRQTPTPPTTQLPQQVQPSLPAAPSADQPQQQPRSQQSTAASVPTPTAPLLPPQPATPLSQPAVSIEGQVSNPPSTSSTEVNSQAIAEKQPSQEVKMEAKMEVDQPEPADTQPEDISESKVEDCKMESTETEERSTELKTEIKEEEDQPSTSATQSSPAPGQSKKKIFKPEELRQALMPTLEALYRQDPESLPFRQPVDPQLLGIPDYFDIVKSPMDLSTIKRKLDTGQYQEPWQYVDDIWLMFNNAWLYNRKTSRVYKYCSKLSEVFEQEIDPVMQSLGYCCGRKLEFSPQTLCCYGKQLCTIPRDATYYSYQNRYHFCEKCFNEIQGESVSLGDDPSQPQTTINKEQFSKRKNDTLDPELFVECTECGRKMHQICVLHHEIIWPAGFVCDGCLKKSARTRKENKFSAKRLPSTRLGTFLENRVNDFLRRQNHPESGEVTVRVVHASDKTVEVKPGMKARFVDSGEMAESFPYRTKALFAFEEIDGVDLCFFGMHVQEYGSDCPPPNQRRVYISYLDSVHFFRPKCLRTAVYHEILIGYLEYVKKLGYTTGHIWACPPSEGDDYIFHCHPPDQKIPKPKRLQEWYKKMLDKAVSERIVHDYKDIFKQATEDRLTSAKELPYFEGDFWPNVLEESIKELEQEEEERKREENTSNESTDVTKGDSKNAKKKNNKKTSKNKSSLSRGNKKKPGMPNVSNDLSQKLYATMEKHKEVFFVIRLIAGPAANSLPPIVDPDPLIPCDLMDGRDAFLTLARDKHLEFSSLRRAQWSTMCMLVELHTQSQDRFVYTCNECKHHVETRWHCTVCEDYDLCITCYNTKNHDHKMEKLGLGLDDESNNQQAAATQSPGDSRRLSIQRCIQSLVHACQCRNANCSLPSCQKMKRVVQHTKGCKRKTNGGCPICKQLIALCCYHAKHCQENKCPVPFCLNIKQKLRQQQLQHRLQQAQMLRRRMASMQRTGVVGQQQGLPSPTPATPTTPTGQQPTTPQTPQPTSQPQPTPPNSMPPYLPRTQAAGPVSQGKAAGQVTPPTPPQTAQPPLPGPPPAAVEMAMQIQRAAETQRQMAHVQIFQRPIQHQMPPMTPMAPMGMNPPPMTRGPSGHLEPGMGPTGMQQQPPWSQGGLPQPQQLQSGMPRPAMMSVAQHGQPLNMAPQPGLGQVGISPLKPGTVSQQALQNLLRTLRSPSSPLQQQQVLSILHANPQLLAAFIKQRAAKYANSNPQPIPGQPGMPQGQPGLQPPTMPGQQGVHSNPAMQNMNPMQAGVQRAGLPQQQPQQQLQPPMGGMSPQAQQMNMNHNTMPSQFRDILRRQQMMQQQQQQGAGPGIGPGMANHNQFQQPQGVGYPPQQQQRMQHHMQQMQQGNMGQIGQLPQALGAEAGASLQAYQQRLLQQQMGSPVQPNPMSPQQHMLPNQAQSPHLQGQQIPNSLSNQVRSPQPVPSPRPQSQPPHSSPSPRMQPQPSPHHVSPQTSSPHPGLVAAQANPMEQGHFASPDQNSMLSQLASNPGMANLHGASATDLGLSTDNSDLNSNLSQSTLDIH
Experimental: (§2) (FIG. 8A) Combined effect of Isx treatment for 24 h and WT ERK2 (W) or kinase dead K52R ERK2 (R) on the HAT activities of p300, and (FIG. 8B) other HATs, CBP, PCAF and GCN5-L2, transfected in HEK293 cells.

[6] = biological target: T2, CBP (Homo sapiens, UniProt Q92793); test: HAT activity of HATs expressed in 293 cells; format: cell-based; settings: combination of ERK2 expression and Isx, 24 h (FIG. 8)
T2 construct: expressed in transfected cells; host or cells: HEK293
Experimental: as §2

[7] = biological target: T3, PCAF (Homo sapiens, UniProt Q92831); test: HAT activity of HATs expressed in 293 cells; format: cell-based; settings: combination of ERK2 expression and Isx, 24 h (FIG. 8)
T3 construct: expressed in transfected cells; host or cells: HEK293
T3 sequence (Q92831 whole entry, species assumed): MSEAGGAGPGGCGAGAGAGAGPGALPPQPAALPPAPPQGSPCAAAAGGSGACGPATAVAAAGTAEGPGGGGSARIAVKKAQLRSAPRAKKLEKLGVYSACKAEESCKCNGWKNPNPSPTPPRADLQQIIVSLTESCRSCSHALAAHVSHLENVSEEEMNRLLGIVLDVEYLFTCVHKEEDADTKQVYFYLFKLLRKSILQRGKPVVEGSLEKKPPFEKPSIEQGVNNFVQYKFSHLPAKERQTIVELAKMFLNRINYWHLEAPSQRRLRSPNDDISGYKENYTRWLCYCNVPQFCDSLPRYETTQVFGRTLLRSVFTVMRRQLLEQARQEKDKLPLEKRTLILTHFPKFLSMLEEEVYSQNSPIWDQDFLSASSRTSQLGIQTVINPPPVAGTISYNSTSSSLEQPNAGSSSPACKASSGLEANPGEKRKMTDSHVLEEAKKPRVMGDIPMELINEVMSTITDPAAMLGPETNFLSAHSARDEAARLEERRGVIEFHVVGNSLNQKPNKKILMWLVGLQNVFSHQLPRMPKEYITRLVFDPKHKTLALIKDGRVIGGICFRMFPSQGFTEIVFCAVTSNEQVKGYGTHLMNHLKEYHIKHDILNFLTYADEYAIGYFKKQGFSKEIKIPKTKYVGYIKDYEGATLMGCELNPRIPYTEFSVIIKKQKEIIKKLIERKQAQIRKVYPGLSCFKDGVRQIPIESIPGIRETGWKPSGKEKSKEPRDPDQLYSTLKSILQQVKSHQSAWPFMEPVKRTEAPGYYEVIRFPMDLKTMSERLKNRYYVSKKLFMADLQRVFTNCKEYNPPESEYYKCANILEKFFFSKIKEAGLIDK
Experimental: as §2

[8] = 24 h exposure, 5-80 μM Isx (FIG. 2A)

p300 HAT activity [5]: increased
CBP HAT activity [6]: increased
PCAF HAT activity [7]: not
SMILES: O=C(NC1CC1)c1cc(-c2cccs2)on1 [Isx, N-cyclopropyl-5-(thiophen-2-yl)isoxazole-3-carboxamide]
ERK1/2 activation, time course ([1]; 20 μM Isx, 15 min to 24 h (FIG. 6)): biphasic effect
MafA expression [1, 8]: increased substantially
PDX-1 expression [1, 8]: little if any change
immunoreactive BETA2 [1, 8]: increased at all concentrations
Acetylation of histone H3 and H4 ([1]; MIN6 cells treated with Isx (FIG. 2A, FIG. 4A)): increased; also recorded: marked effect
ERK1/2 phosphorylation ([1]; following 24 h of exposure): detectable
acetylation of BETA2 [2]: more strongly than the HDAC inhibitor sodium butyrate
HDAC activity in MIN6 cells [3]: not affected
HAT activity increase ([4]; nuclear extracts from Isx-treated MIN6 cells, 24 h (FIG. 4C)): ~2 fold
HAT activity in nuclear extracts of MIN6 cells expressing p300 ([4]; over and above that from expressed p300): increased
